Assay results from paper PMC5770468, “Cardiac glycoside/aglycones inhibit HIV-1 gene expression by a mechanism requiring MEK1/2-ERK1/2 signaling” (Scientific Reports, 2018).

Tested on: SRp20/SRSF3
Experiment: Immunoblot of SRp20 in HeLa rtTA-HIV-ΔMls cells
Type: cell-based, human
Details: 3 d with ~IC50s of CSs
Description: Figure 4 CSs suppress HIV-1 gene expression by altering viral RNA processing. […] (a,b) CSs induce oversplicing of HIV-1 RNAs (n ≥ 3, mean, s.e.m.). (a) Diagram of the primer positions (arrow heads) used for qRT-PCR. (b) Graph of the relative amount of US (black), SS (white), and MS (gray) HIV-1 RNAs in cells treated with various CSs. (c) Nuclear export of HIV-1 US RNAs in cells is altered by CSs (representative n ≥ 4). HIV-1 US RNAs were localized by FISH after treating HeLa rtTA-HIV(Gag-GFP) cells as described above but with ~IC90s of CSs. Nuclei were stained by DAPI and images captured at 630 × magnification. […] SRp20, Tra2β, and tubulin were analyzed by immunoblot of HeLa rtTA-HIV-ΔMls cells treated as described above except cells of this representative blot were treated 3 d with ~IC50s of CSs. […]
To monitor HIV-1 gene expression or replication, Gag release into cell culture supernatants were assayed by ELISA using a p24^CA antigen capture assay kit (AIDS & Cancer Virus Program, NCI-Frederick, Frederick, MD USA). […] For analysis of HIV-1 and SR protein expression (and phosphorylation states with calf intestinal alkaline phosphatase treatments), cells were lysed and analyzed by western blot as previously outlined. […] Activation of MAPKs was determined by western blot quantitation and calculation of phospho/total protein levels. […]

C[C@]12CC[C@H](O)C[C@H]1CC[C@@H]1[C@@H]2CC[C@]2(C)[C@@H](C3=CC(=O)OC3)CC[C@]12O [Digitoxigenin]
mobility of SRp20: increased the mobility
